Read-outs that look alike come from different tables or passages of the source.
Key:
in vivo [1] = conditions: mouse, in vivo, ip
Description: (§1) In this assay, Frings and CF1 mice were injected with test compound and placed on a knurled rod which rotated at a speed of 6 rpm. The ability of the mice to maintain equilibrium for long periods of time was determined; those mice that were unable to maintain equilibrium on the rotorod for 1 min in each of 3 trials were considered impaired.

NMDA receptor [2] = assay: Inhibition of NMDA/glycine-induced increases in intracellular calcium in cultured rat cerebellar granule cells (RCGC); type: cell-based; conditions: NMDA/glycine-induced increases in intracellular calcium, cultured rat cerebellar granule cells; read-out: IC50 (μM) vs. NMDA
[3] = system: maximal electroshock-induced seizures; assay: Maximal electroshock-induced seizures in rats; type: in vivo; conditions: Rattus norvegicus, read-out: ED50, maximal electroshock-induced seizures
[4] = system: maximal electroshock-induced seizures; assay: Maximal electroshock-induced seizures in mice; type: in vivo; conditions: mice; for ED50: Mus musculus, ip
in vivo [5] = conditions: rat, po
[6] = target: NMDA receptor-ionophore complex (site labeled by [3H]MK-801); assay: Inhibition of [3H]MK-801 binding in rat cortical/hippocampal washed membrane preparations; conditions: read-out: IC50 (μM) vs. [3H]MK-801; rat cortical/hippocampal washed membranes
GluR3 = target: T1, GluR3 (Rattus norvegicus, UniProt P19492); conditions: cited from earlier work
T1 construct: host or cells: Xenopus oocytes
T1 sequence (P19492 23-888): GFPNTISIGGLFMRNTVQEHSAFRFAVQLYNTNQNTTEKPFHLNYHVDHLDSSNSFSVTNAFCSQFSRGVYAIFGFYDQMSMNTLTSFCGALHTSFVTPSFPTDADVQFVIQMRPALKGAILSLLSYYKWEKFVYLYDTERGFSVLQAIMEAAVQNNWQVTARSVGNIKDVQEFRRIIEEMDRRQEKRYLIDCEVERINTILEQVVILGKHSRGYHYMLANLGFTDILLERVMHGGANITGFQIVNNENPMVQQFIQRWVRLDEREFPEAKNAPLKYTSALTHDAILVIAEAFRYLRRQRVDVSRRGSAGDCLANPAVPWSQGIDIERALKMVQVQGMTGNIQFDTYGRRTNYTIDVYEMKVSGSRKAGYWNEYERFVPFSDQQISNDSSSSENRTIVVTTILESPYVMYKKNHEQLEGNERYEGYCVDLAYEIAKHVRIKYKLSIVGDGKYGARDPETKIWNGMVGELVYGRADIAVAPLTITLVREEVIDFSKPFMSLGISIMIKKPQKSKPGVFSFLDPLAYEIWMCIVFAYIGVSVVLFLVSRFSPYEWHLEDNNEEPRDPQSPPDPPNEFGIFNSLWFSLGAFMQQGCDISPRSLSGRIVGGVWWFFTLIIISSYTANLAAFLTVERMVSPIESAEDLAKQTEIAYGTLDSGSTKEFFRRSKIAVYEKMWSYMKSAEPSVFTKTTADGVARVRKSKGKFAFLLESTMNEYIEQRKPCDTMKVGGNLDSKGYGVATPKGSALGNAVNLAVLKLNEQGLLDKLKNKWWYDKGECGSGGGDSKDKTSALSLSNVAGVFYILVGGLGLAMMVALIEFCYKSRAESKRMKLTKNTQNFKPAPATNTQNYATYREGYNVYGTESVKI

GluR1 [7] = target: T2, GluR1 (Rattus norvegicus, UniProt P19490); conditions: cited from earlier work
T2 construct: host or cells: Xenopus oocytes
T2 sequence (P19490 19-907): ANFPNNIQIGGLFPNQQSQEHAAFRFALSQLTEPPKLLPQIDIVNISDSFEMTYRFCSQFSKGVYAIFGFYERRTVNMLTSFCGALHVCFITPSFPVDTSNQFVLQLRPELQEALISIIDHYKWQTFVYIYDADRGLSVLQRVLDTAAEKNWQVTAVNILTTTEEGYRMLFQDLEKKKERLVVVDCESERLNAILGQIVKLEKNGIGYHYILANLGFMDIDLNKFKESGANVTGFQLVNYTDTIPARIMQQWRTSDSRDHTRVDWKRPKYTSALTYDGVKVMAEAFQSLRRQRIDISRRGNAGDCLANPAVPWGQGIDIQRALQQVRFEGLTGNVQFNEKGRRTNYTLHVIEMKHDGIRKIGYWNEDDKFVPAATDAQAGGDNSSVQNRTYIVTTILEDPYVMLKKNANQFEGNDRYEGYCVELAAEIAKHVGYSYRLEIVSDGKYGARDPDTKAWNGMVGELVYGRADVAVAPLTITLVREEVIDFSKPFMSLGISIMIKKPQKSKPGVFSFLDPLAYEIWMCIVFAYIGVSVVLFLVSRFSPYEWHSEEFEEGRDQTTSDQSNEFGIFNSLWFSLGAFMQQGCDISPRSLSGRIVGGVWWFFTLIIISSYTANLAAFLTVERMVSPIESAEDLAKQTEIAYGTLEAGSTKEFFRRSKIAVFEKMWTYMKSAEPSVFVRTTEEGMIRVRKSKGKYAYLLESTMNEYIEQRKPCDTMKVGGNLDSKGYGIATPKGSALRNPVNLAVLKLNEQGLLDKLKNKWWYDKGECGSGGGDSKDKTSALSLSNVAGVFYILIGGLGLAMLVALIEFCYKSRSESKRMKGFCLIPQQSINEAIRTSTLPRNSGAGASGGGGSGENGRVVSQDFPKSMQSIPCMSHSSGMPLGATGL

focal ischemic stroke = assay: Rat model of focal ischemic stroke (vessel occlusion); type: in vivo, rats; conditions: i.p. 2 mg/kg 30 min prior to vessel occlusion and 2 mg/kg 3 hr post-occlusion
[8] = system: mean arterial blood pressure
sound-induced seizures = assay: Sound-induced seizures in Frings mice (reflex epilepsy); type: in vivo; conditions: Mus musculus, Frings mice
NMDA receptors = conditions: read-out: IC50, NMDA-induced responses; cited from earlier work
GluR1+GluR2 = target: T3, GluR1+GluR2 (Rattus norvegicus, UniProt P19490+P19491, Q607R); conditions: cited from earlier work
T3 construct: host or cells: Xenopus oocytes

kainate receptors = conditions: read-out: IC50, kainate-induced responses; cited from earlier work
GluR1 [9] = target: T2, GluR1; conditions: cited from earlier work; remark: listed apart in the source
NMDAR1 = target: T4, NMDAR1 (UniProt A7XY94+P35439); conditions: cited from earlier work
T4 construct: host or cells: Xenopus oocytes
T4 sequence (A7XY94 25-1448, other chains not shown): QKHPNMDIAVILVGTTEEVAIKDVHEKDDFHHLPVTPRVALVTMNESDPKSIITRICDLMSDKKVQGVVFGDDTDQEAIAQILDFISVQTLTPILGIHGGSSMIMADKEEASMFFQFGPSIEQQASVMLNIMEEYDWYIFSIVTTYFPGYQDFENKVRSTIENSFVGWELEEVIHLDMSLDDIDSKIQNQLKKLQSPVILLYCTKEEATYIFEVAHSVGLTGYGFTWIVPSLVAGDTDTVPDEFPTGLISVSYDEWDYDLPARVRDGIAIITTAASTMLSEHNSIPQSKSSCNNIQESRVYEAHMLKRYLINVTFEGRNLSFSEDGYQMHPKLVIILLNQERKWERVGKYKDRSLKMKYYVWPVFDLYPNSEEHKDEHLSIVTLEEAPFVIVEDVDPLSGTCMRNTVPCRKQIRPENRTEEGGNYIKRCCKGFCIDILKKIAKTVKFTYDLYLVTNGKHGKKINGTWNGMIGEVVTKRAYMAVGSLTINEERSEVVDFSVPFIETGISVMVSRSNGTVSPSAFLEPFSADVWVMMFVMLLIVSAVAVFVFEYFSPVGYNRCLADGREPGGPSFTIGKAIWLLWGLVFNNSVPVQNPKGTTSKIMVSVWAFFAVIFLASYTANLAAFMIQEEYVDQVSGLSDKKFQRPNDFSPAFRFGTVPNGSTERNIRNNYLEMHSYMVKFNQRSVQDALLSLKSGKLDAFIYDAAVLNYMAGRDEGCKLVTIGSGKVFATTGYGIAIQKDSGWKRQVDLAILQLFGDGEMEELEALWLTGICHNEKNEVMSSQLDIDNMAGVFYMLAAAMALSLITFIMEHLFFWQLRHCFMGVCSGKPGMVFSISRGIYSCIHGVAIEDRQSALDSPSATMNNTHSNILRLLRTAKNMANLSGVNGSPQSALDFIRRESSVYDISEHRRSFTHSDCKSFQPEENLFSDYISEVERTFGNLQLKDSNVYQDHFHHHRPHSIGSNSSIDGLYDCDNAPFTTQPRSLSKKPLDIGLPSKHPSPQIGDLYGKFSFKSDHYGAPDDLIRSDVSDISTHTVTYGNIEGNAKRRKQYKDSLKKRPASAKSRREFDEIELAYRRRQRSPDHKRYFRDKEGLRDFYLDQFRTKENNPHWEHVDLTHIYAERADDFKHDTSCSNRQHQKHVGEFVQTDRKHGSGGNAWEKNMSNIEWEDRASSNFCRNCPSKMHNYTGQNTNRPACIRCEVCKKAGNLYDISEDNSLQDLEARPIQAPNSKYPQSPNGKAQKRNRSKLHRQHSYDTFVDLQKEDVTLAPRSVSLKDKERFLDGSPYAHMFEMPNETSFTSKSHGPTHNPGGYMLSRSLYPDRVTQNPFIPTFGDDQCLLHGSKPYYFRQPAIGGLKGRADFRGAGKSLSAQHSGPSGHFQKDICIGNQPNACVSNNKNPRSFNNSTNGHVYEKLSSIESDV

[10] = system: muscle relaxation and anesthesia; conditions: intrathecal administration; cited from earlier work
[11] = target: T5, norepinephrine uptake site (Rattus norvegicus, UniProt Q63380); assay: Norepinephrine uptake binding assay: [3H]desipramine binding to rat cortical membranes
T5 construct: from tissue; host or cells: rat cortical membranes (per the assay title)
T5 sequence (Q63380 1-617): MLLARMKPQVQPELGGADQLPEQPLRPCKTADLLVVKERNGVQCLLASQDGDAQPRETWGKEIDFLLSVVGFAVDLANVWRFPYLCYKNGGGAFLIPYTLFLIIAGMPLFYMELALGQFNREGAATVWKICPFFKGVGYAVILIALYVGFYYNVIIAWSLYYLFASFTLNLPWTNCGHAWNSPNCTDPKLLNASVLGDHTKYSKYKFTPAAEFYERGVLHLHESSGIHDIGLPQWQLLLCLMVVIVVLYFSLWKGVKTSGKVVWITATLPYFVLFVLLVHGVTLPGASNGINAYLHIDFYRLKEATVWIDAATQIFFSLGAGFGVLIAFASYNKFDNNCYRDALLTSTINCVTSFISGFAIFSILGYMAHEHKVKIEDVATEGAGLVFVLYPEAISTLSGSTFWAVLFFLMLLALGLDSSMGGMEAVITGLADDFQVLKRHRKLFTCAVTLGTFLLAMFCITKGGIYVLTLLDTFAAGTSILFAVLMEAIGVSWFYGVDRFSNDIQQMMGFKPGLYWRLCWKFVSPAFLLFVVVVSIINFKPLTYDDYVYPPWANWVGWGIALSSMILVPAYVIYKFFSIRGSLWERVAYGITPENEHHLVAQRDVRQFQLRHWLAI

behavior [12] = assay: Behavioral effects in conscious beagle dogs
thermal nociception [13] = type: in vivo, rats; conditions: 25 mg/kg i.p.
Description: In these experiments, a 52° C. hot plate was used as the nociceptive stimulus.

motor performance = assay: Acute motor impairment (rotorod) in mice; conditions: for TD50 (motor impairment): Frings mice
Description: as §1

temporary focal ischemia = assay: Temporary focal cerebral ischemia (middle cerebral artery occlusion, suture withdrawn after 2 hr); type: in vivo, rat; conditions: two doses of 1 mg/kg i.p.
Description: In a fourth model of focal cerebral ischemia in the rat, the middle cerebral artery was temporarily occluded by passing a small piece of suture thread through the carotid artery to the region of the middle cerebral artery. The suture thread was withdrawn after an ischemic period of 2 hr. Core body temperature was maintained at 37° C. […]

seizure threshold = assay: i.v. Metrazol test (seizure threshold) in mice; type: in vivo; conditions: 10 mg/kg i.p.
behavior [14] = assay: Behavioral effects in conscious male Wistar rats
thermal nociception [15] = type: in vivo, rats; conditions: 25 mg/kg i.p.; remark: listed apart in the source
Description: In this standard assay, the thermal nociceptive stimulus was 52° C. warm water with the latency to tail flick or withdrawal taken as the endpoint.

permanent focal ischemia = assay: Permanent focal cerebral ischemia (middle cerebral artery occlusion, suture); type: in vivo, rat; conditions: 1 mg/kg i.p. at 30 min and again 4 hr post-occlusion
Description: In the second study of focal cerebral ischemia in the rat, the middle cerebral artery was permanently occluded by passing a small piece of suture thread through the carotid artery to the region of the middle cerebral artery. Core body temperature was maintained at 37° C. Compound 4, 10 mg/kg i.p. administered immediately after the onset of the ischemic event, produced a statistically significant reduction in the volume of the brain infarct (20%) recorded 24 hr later.

[16] = system: mean arterial pressure, heart rate, ECG; assay: Cardiovascular activity in conscious beagle dogs
[17] = system: central muscarinic cholinergic receptor; type: binding, rat
dopamine uptake site = target: T6, dopamine uptake site (Cavia porcellus, UniProt H0WCX4); assay: Dopamine uptake binding assay: [3H]WIN-35,428 binding to guinea pig striatal membranes
T6 construct: from tissue; host or cells: guinea pig striatal membranes (per the assay title)
T6 sequence (H0WCX4 1-619): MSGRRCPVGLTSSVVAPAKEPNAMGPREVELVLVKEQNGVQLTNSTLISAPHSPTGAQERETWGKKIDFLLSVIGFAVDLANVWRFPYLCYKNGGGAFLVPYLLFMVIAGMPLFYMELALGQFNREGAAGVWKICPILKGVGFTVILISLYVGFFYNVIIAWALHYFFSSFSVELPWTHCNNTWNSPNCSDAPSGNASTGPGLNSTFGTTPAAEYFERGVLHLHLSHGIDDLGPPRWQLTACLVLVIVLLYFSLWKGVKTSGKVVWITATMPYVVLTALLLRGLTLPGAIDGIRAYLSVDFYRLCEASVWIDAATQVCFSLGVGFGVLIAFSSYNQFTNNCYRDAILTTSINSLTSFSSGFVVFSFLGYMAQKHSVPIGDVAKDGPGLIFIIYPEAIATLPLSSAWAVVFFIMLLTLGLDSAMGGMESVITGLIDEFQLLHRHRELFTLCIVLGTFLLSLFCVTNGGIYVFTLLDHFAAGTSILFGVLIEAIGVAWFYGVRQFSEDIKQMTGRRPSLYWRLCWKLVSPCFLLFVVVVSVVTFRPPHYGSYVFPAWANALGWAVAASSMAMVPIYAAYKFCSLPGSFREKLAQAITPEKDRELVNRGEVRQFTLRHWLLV

[18] = system: PCP-like discriminative stimulus effects; type: in vivo, rats; conditions: i.p., rats
Text: In this assay, rats who have been trained to lever press for food reinforcement must select which of two levers in their cages is correct. The only stimulus they hive for selecting the correct lever is their ability to detect whether they received a PCP or vehicle injection After about two months of training, rats become very good at discriminating PCP from vehicle injections and can then be tested with other drugs to determine if they are discriminated as PCP. When tested in this procedure, other drugs which are known to produce a PCP-like intoxication substitute for PCP. These drugs include various PCP analogs such as ketamine and the noncompetitive NMDA receptor antagonist, MK-801.

focal ischemia = assay: Photothrombotic (Rose Bengal) model of focal cerebral ischemia; type: in vivo, rat; conditions: 10 mg/kg i.p. at 15 min, 3 hr, and again 6 hr post-occlusion
Text: In a third model of focal cerebral ischemia in the rat, an ischemic infarct was produced by a photothrombotic method using the dye Rose Bengal.

[19] = system: delayed rectifier potassium channel; assay: Inhibition of delayed rectifier potassium channel in cultured N1E-115 neuroblastoma cells; type: cell-based; conditions: read-out: Delayed rectifier potassium channel: estimated IC50
induction of LTP = system: induction of LTP; parameters: species or system rat; conditions: at 100 μM
[20] = Motor toxicity (TD50) in rats; conditions: rat, in vivo, po
behavior [21] = assay: Behavioral effects in conscious male NMRI mice
[22] = system: formalin-induced flinching; type: in vivo, Sprague-Dawley rats; conditions: 10 mg/kg i.p.
[23] = system: acetic acid-induced writhing; type: in vivo, mice; conditions: 10 mg/kg i.p.
NMDA receptor [24] = conditions: rat hippocampal slices
Description: Glutamate-mediated transmission at synapses of Schaffer collateral fibers and CA1 pyramidal cells was measured in slices of rat brain containing the hippocampus. This assay measures electrophysiologically the postsynaptic depolarization caused by the presynaptic release of glutamate, and can readily distinguish synaptic transmission mediated by NMDA or AMPA receptors.

L-type calcium channel = system: T7, L-type calcium channel; assay: Inhibition of KCl depolarization-induced increases in intracellular calcium in cultured rat cerebellar granule cells; type: cell-based; conditions: cultured rat cerebellar granule cells; read-out: L-type calcium channel: estimated IC50, KCl depolarization-induced increases in intracellular calcium
T7 construct: L-type calcium channel: estimated IC50, KCl depolarization-induced increases in intracellular calcium; other: cultured
Text: The ability of arylalkylamines to inhibit dihydropyridine-sensitive Ca^2+ channels was examined in cerebellar granule cells and a rat aortic smooth muscle cell line, A7r5 cells.

serotonin uptake site = target: T8, serotonin uptake site (Rattus norvegicus, UniProt P31652); assay: Serotonin uptake binding assay: [3H]citalopram binding to rat forebrain membranes
T8 construct: from tissue; host or cells: rat forebrain membranes (per the assay title)
T8 sequence (P31652 whole entry): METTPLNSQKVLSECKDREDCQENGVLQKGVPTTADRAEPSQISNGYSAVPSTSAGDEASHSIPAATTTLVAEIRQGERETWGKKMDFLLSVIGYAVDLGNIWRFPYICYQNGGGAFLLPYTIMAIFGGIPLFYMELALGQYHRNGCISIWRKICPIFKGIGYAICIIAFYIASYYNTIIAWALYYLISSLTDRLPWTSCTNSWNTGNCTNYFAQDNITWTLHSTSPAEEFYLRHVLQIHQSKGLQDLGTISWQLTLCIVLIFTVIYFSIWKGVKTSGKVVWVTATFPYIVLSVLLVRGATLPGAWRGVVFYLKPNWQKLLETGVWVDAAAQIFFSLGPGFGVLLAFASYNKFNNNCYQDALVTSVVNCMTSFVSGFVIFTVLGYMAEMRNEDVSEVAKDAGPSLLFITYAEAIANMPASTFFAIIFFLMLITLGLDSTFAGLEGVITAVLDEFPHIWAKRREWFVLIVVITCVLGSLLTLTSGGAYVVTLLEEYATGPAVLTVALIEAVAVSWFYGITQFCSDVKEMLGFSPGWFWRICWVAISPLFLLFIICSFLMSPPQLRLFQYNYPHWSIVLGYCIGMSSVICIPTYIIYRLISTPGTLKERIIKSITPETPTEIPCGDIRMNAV

[25] = 3 mg/kg i.v. (60 sec bolus injection)
[26] = 10 mg/kg i.v. (60 sec bolus injection)

COc1cccc(C(CCN)c2cccc(F)c2)c1 (stereo not shown) [Compound 25, 3-(3-fluorophenyl)-3-(3-methoxyphenyl)-1-propylamine]
TD50 (in vivo [1]): 32.2 mg/kg
IC50 (NMDA receptor [2]): 0.279 µM
ED50 ([3]; rats, oral): 46.4 mg/kg
ED50 [4]: 12.5 mg/kg
TD50 (in vivo [5]): 163 to 326 mg/kg
IC50 [6]: 0.871 µM

NCCCNCCCCNCCC(=O)NCCCCCNC(=O)[C@H](CC(N)=O)NC(=O)Cc1ccc(O)cc1O [JSTX-3]
IC50 (GluR3): 30 nM
IC50 (GluR1 [7]): 40 nM

COc1ccccc1C(CCN)c1cccc(F)c1 (stereo not shown) [Compound 24, 3-(3-fluorophenyl)-3-(2-methoxyphenyl)-1-propylamine]
neuroprotectant activity in a rat model of focal ischemic stroke (focal ischemic stroke): no significant neuroprotectant activity
TD50 (in vivo [1]; Frings): 16 mg/kg
IC50 (NMDA receptor [2]): 0.206 µM
no significant cardiovascular activity in anesthetized rats at doses up to ([8]; i.v.): up to 10 mg/kg
ED50 ([3]; rats, oral): 46 mg/kg
TD50 (in vivo [5]): 51 mg/kg
ED50 (sound-induced seizures; ip): 5 mg/kg
IC50 [6]: 0.591 µM

CCCC(=O)N[C@@H](Cc1ccc(O)cc1)C(=O)NCCCNCCCCNCCCN [PhTX-343]
IC50 (NMDA receptors): 2500 nM
IC50 (GluR1+GluR2): 270000 nM
IC50 (kainate receptors): 120 nM
IC50 (GluR1 [9]): 2800 nM
IC50 (NMDAR1): 2190 nM

NCCCNCCCCNCCCNCCCN(O)CCCNC(=O)Cc1c[nH]c2ccccc12 [agatoxin-489]
muscle relaxation and anesthesia [10]: not

NCCC(c1cccc(F)c1)c1cccc(F)c1 [Compound 20, 3,3-bis(3-fluorophenyl)-1-propylamine]
Monoamine uptake binding assays: norepinephrine uptake binding assay, percent block ([11]; at 0.1 μM): 5% at
Monoamine uptake binding assays: norepinephrine uptake binding assay, percent block ([11]; at 10 μM): 0.1^g58% at
behavioral effects (behavior [12]; [25]): increased motor activity, agitation and anxiousness, slight tremors, licking of the mouth, whining, and urination
behavioral effects (behavior [12]; [26]): dilated pupils, whole body tremors, incoordination, licking of the mouth, salivation, panting, rapid blinking of the eyes, whining, anxiousness, seizures, and death
analgesic activity, rat 52° C. hot plate test (thermal nociception [13]): no significant analgesic activity
TD50 (motor impairment) (motor performance; i.p.): 19.9 mg/kg
TD50 (motor impairment) (motor performance; oral): 21.8 mg/kg
motor impairment (motor performance; mice, 30 mg/kg p.o.): motor impairment
TD50 (in vivo [1]): 20.6 mg/kg
reduction in the infarct volume (temporary focal ischemia; 2 hr after occlusion (time of reperfusion) and 6 hr later): 43%
reduction in the infarct volume (temporary focal ischemia; immediately after middle cerebral artery occlusion and 6 hr later): 51%
IC50 (NMDA receptor [2]): 0.07 µM
seizure threshold, i.v. Metrazol test (seizure threshold): an increase in seizure threshold
no significant cardiovascular activity in anesthetized rats at doses up to ([8]; i.p.): ≤ 10 mg/kg
behavioral effects (behavior [14]; 2 mg/kg i.v.): no behavioral effects
behavioral effects (behavior [14]; 32 mg/kg i.v.): Straub tail, convulsions, and death
behavioral effects (behavior [14]; doses ranging from 4 to 16 mg/kg i.v.): excitation, stereotypies, increased reactivity to touch, increased muscle tone, and tremor
analgesic activity, rat 48° C. tail flick test (thermal nociception [15]): no significant analgesic activity
reduction in the infarct volume (permanent focal ischemia): 24%
cardiovascular activity ([16]; 0.3 mg/kg i.v. (60 sec bolus injection)): no significant cardiovascular activity
cardiovascular activity ([16]; 1 mg/kg i.v. (60 sec bolus injection)): no significant cardiovascular activity
heart rate [16, 25]: transient increases in mean arterial pressure and heart rate
mean arterial pressure [16, 25]: transient increases in mean arterial pressure and heart rate
heart rate [16, 26]: larger magnitude and longer duration effects
mean arterial pressure [16, 26]: larger magnitude and longer duration effects
Central muscarinic cholinergic receptor: percent block of [3H]QNB binding ([17]; at 0.1 μM): 8% at
Central muscarinic cholinergic receptor: percent block of [3H]QNB binding ([17]; at 10 μM): 0.190% at
ED50 ([3]; po): 33.6 mg/kg
Monoamine uptake binding assays: dopamine uptake binding assay, percent block (dopamine uptake site; at 0.1 μM): 6% at
Monoamine uptake binding assays: dopamine uptake binding assay, percent block (dopamine uptake site; at 10 μM): 0.1^f81% at
no generalization to PCP at doses up to the behaviorally active dose of [18]: ≤ 10 mg/kg
ED50 [4]: 20.1 mg/kg
no significant anticonvulsant activity against maximal electroshock-induced seizures at doses up to ([4]; oral (p.o.)): up to 30 mg/kg
reduction in the infarct volume (focal ischemia): 50%
ED50 (sound-induced seizures; ip): 2.1 mg/kg
ED50 (sound-induced seizures; oral): 9.7 mg/kg
IC50 [19]: 1000 to 10000 nM
LTP Assay (block of the induction of LTP) (induction of LTP): block at 100
TD50 [20]: 55.9 mg/kg
behavioral effects (behavior [21]; 8 mg/kg i.p.): excitation and increased reactivity to touch
behavioral effects (behavior [21]; 64 mg/kg i.p.): convulsions and death
behavioral effects (behavior [21]; 2 and 4 mg/kg i.p.): no behavioral effects
behavioral effects (behavior [21]; 16 and 32 mg/kg i.p.): excitation, Straub tail, tremor, stereotypies, hypothermia, and mydriasis
behavioral effects (behavior [21]; 128 and 256 mg/kg i.p.): convulsions and death
analgesic activity, rat formalin test [22]: significant analgesic activity, not blocked by the opiate receptor antagonist naloxone
analgesic activity against acetic acid-induced abdominal writhing [23]: significant analgesic activity, not blocked by naloxone
Suppression of NMDA Receptor-Mediated Synaptic Transmission (concentration which suppresses) (NMDA receptor [24]): 30 to 300 µM
IC50 (L-type calcium channel): 2200 nM
IC50 [6]: 0.252 µM
Monoamine uptake binding assays: serotonin uptake binding assay, percent block (serotonin uptake site; at 0.1 μM): 10^g28% at
Monoamine uptake binding assays: serotonin uptake binding assay, percent block (serotonin uptake site; at 10 μM): 0.1^h94% at

From patent publication US6750244B2, “Compounds active at a novel site on receptor-operated calcium channels useful for treatment of neurological disorders and diseases” (NPS Pharmaceuticals, Inc., priority 1993, dated 2004)
